{"source": "patent US12484575B2", "about": "“Mosquito egg cryopreservation” (Sanaria Inc., priority 2019, dated 2025)", "key": {"[1]": {"test_system": "An. stephensi SD500 mosquito eggs", "assay": "Hatch rate of An. stephensi eggs after two-step CPA incubation, plunge into LN2 and thawing/dilution", "format": "in vivo, Anopheles stephensi", "conditions": "for Average ranked score of hatch rates (1 best to 4): thirteen experiments", "protocol": "(§1) CPA was contained in a polypropylene 19 mm diameter×19 mm deep paint mixing pot (Michaels 10271583) embedded in a custom aluminum block machined to cover a Peltier-cooled block (Torrey Pines Scientific, IC22XT). CPA was equilibrated to temperature for >2 h prior to addition of eggs for the first incubation step at −6.8° C. Temperature was monitored using a digital thermometer with type-T thermocouple probe in a control sample in the block. Several relatively low molecular weight CPAs were evaluated at different concentrations for toxicity by incubation at 0° C. for up to 15 minutes, including: dimethylacetamide, dimethylformamide, dimethyl sulphoxide, ethanol, ethylene glycol, formamide, glycerol, H4-methanol (also referred to herein as “methanol”), D4 (deuterated)-methanol, D4/^13C-methanol, methylacetamide, propanediol, (sourced from SigmaAldrich); combinations in different ratios were also evaluated."}, "[2]": {"test_system": "Anopheles eggs", "assay": "Evaluation of low molecular weight CPAs and CPA concentrations for toxicity and egg viability", "format": "in vivo, Anopheles stephensi", "protocol": "as §1\nPercentages (v/v) of methanol and D4-methanol in water solutions were evaluated at between 50% and 100% aqueous CPA, namely, 50%, 70%, and 90%, and compared to CPA concentrations of 100%."}, "[3]": {"conditions": "ambient temperatures; cited from earlier work"}, "[4]": {"test_system": "Anopheles eggs", "conditions": "100% methanol, 20 minutes at −11° C., after subsequent cooling and warming/dilution", "quoted_text": "Control eggs warmed/diluted from −11° C. (“Control”); eggs subsequently cooled in LN2 (“LN2”) before warming/dilution.\nOnce the first larval hatching was recorded, subsequent experiments recorded the percentage of larval hatch rate (number of larvae×100/number of eggs in the Petri dish) on day-3 post-thaw, and this was used as the measure of survival. In experiments measuring full development, the hatched larvae were fed standard larval food, pupae were harvested and transferred to rearing pans in 300×300×300 mm cages for adult mosquito emergence."}, "[5]": {"test_system": "larvae of An. gambiae", "conditions": "used with common methodologies; cited from earlier work"}, "[6]": {"test_system": "An. gambiae embryos", "conditions": "used as permeabilization reagents; cited from earlier work"}, "[7]": {"conditions": "100% CPA, compared with 50%, 70%, 90%"}}}
{"smiles": "[2H]OC([2H])([2H])[2H]", "note": "[D4-Methanol, D4-methanol]", "values": [{"measurement": "Average ranked score of hatch rates (1 best to 4)", "setting": "[1]; LN2 plunge boiling −196° C.", "result": 2.47}, {"measurement": "Average ranked score of hatch rates (1 best to 4)", "setting": "[1]; LN2 plunge chilled −202° C.", "result": 2.20}, {"measurement": "Hatch rates versus methanol", "setting": "[1]; coupled with cooling by plunge into chilled LN2", "result": "marginally improved hatch rates"}, {"measurement": "Viability of eggs", "setting": "[2]; [7]", "result": "highest"}, {"measurement": "Viability of eggs", "setting": "[2]; CPA at 50% v/v in water", "result": "a small percentage of viable eggs"}, {"measurement": "Result among the CPAs evaluated", "setting": "[2]; comparison of low molecular weight CPAs", "result": "best results"}, {"measurement": "Viscosity increase relative to H4-methanol", "setting": "[3]", "result": "approximately 11%"}]}
{"smiles": "CO", "note": "[Methanol, methanol]", "values": [{"measurement": "Proportion of eggs hatched", "setting": "[4]", "result": "15.3±4.3", "unit": "%"}, {"measurement": "Average ranked score of hatch rates (1 best to 4)", "setting": "[1]; LN2 plunge boiling −196° C.", "result": 2.87}, {"measurement": "Average ranked score of hatch rates (1 best to 4)", "setting": "[1]; LN2 plunge chilled −202° C.", "result": 2.27}, {"measurement": "Viability of eggs", "setting": "[2]; [7]", "result": "highest"}, {"measurement": "Viability of eggs", "setting": "[2]; CPA at 50% v/v in water", "result": "a small percentage of viable eggs"}, {"measurement": "Tolerance by and permeation of untreated eggs", "setting": "[2]; untreated Anopheles eggs", "result": "tolerated by, and to permeate, untreated Anopheles eggs"}, {"measurement": "Toxicity to larvae", "setting": "[5]", "result": "highly toxic"}]}
{"smiles": "OCCO", "note": "[ethylene glycol, reference compound]", "values": [{"measurement": "Toxicity to larvae", "setting": "[5]", "result": "highly toxic"}]}
{"smiles": "CCCCCCC", "note": "[heptane]", "values": [{"measurement": "Toxicity to embryos", "setting": "[6]", "result": "extremely toxic to the embryos"}]}
